Experimental data from patent US7700741B2, “High affinity anti-N1,N12-diacetylspermine monoclonal antibody” (Trans Genic Inc., priority 2005, dated 2010).

Tests used:
[1] = tested on: anti-DiAcSpm polyclonal antibody; test: Evaluation of immunizing antigen lots (inhibition of polyclonal antibody reaction with solid-phased antigen); format: binding, rabbit; conditions: six lots compared; absorbance at 492 nm; FIG. 1
Procedure: The antigen was evaluated using DiAcSpm specific polyclonal antibody. Six lots of the antigen prepared in (1) above were examined on their activities to inhibit the reaction of anti-DiAcSpm polyclonal antibody with solid-phased AcSpm-HMC-AcSpm, by the method described later in Experimental Example 1.
AcSpm-HMC-peptide diluted with PBS (pH 7.0) to 0.07 μg/ml was added to 96-well microtiter plates at 50 μl/well as an antigen to be solid-phased, and left at 25° C. for 1.5 hours. Subsequently, the plates were washed with 0.05% Tween20-containing PBS (pH 7.0) (PBST) three times. Then, 0.5% gelatin-containing PBST (blocking solution) was added thereto at 200 μl/well and left at 25° C. for 1 hour. The plates were frozen at −30° C. overnight to freeze the blocking solution for freeze-drying to thereby prepare freeze-dried plates. To each well of dilution plates, 70 μl of 10 μg/ml anti-DiAcSpm polyclonal antibody and 70 μl of each lot of the immunizing antigen AcSpm-GMB-AMS-BSA with serially varied concentration were mixed and added, and left at 25° C. for 1 hour for pre-reaction. Subsequently, to each well of the freeze-dried plates prepared in Experimental Example 1, 300 μl of PBST was added, left at 25° C. for 30 minutes and then re-washed with PBST once. To each well of these plates, 50 μl of the pre-reacted reaction solution was added and left at 25° C. for 1 hour. Then, after washing with PBST three times, 50 μl of 80-fold dilution of HRP-labeled anti-rabbit IgG antibody (Bio-Rad) was added to each well and left at 25° C. for 1 hour. Subsequently, after washing with PBST three times, 100 μl of o-phenylenediamine solution diluted with 0.012% hydrogen peroxide-containing 0.1 M citrate phosphate buffer (pH 5.0) to 0.5 mg/ml was added to each well and left at 25° C. for 9 minutes. Then, absorbances at 492 nm were measured with an ELISA reader.

[2] = target: anti-DiAcSpm monoclonal antibody; test: Kit competitive ELISA with solid-phased AcSpm-HMC-peptide, crossreactivities of structure analogs; format: binding, mouse; conditions: for KiDiAcSpm/Ki"S" (%) . . . (1): 15 ng/ml antibody, 0.07 μg/ml solid-phased antigen; for Crossreactivity (1) × (2) (%): crossreactivity in urine, Ki ratio × urinary ratio
Procedure: As a measuring kit, competitive ELISA using a solid-phased antigen AcSpm-HMC-peptide was performed based on known methods (Hiramatsu, K. et al., J. Biochem., 124, 231-236 (1998)). As the primary antibody, the monoclonal antibody prepared in Example 1 was used. As the secondary antibody, a commercial, goat-derived HRP-labeled anti-mouse IgG antibody (KPL) was used. The concentration of the solid-phased antigen was set at 0.07 μg/ml based on the concentration employed in a kit using anti-DiAcSpm polyclonal antibody. With respect to the concentration of anti-DiAcSpm monoclonal antibody to be used, 15 ng/ml was selected so that 40% of the maximum reaction efficiency (the point at which the absorbance at 492 nm becomes 1) is achieved when the concentration of the solid-phased antigen AcSpm-HMC-peptide is 0.07 μg/ml (FIG. 4). The dilution ratio of the goat-derived HRP-labeled anti-mouse IgG antibody was set at 2,500-fold from experience.
First, under the conditions established in (1) above, crossreactivities of structure analogs of DiAcSpm with DiAcSpm in urine samples were examined. Briefly, the 50% inhibition activity concentrations of DiAcSpm, N^1-AcSpm, DiAcSpd, N^1-AcSpd, N^8-AcSpd and DiAcPut in the kit were examined, and the crossreactivities of other structure analogs with DiAcSpm in urine were calculated. As a result, crossreactivity with N^1-AcSpd (whose crossreactivity is most apprehended) was 1.62%; crossreactivity with AcSpm was 0.54%; crossreactivity with DiAcSpd was 0.002%; crossreactivity with N^8-AcSpd was 0.01%; crossreactivity with AcPut was 0.01%; and the total crossreactivity was 2.17% (Table 2).

[3] = tested on: anti-DiAcSpm monoclonal antibody CN647; test: Crossreactivity test on cloned wells (culture supernatant of CN647 strain); format: binding, mouse; conditions: all three cloned wells, one designated CN647; FIG. 3
Procedure: Briefly, cells were diluted with 20% FCS-containing RPMI medium to a density of 2.5 cells/ml and added to two 96-well culture plates at 200 μl/well. After five days, single colonies were examined. As a result, a single colony was confirmed in 17 wells out of the two 96-well plates. After 10 days, antibody titers to DiAcSpm were measured in culture supernatants by the method described in Experimental Example 2. Three wells were positive. Cells in these three wells were cultured further and tested for crossreactivities with AcSpm, N^1-AcSpd, N^8-AcSpd, DiAcSpd and AcPut by the method described in Experimental Example 3. […] Thus, antibodies sufficient to achieve the object have been obtained (FIG. 3). One of them was designated “established clone CN647”.
Antibody titers in diluted culture supernatants were measured by the method described in Experimental Example 2. Based on the results, the dilution rate with which the absorbance at 492 nm becomes 1 was selected. To each well of dilution plates, 70 μl of culture supernatant diluted at the dilution rate selected above and 70 μl of DiAcSpm solution with serially varied concentration or a structure analog of DiAcSpm (N^1-AcSpm, N^1-AcSpd, DiAcSpd, or the like) with serially varied concentration were mixed and added, and then left at 25° C. for 1 hour for pre-reaction. Subsequently, to each well of freeze-dried plates prepared in the same manner as in Experimental Example 1, 300 μl of BST was added, left at 25° C. for 30 minutes and re-washed with BST once. To the resultant plates, the pre-reacted reaction solution was added at 50 μl/well and left at 25° C. for 1 hour. Then, after washing with PBST three times, 50 μl of 80-fold dilution of HRP-labeled anti-mouse IgG antibody (KPL) was added to each well and left at 25° C. for 1 hour. […] Then, absorbances at 492 nm were measured with an ELISA reader.

[4] = tested on: monoclonal antibodies to DiAcSpm (Fujiwara et al., Japanese Unexamined Patent Publication No. H11-75839); conditions: prior-art monoclonal antibodies; cited from earlier work
[5] = tested on: monoclonal antibodies to DiAcSpm (Fujiwara et al., Japanese Unexamined Patent Publication No. H11-75839); test: Prior-art 50% binding inhibition of immunoreaction (Fujiwara et al. antibodies); conditions: crossreactivity with DiAcSpm taken as 100; N^1-AcSpd about 25 times DiAcSpm in urine
From the text: Recently, Fujiwara et al. prepared monoclonal antibodies to DiAcSpm (Japanese Unexamined Patent Publication No. H11-75839). With these antibodies, 50% binding inhibition activity against immunoreaction with DiAcSpm is only about 100 times as much as 50% binding inhibition activity against immunoreaction with N^1-acetylspermidine (hereinafter expressed as “N^1-AcSpd”) and is only about 20 times as much as 50% binding inhibition activity against immunoreaction with N^1-acetylspermine (hereinafter expressed as “N^1-AcSpm”) which is a monoacetylated form of spermine. Since the amount of N^1-AcSpd in the urine of healthy persons is about 25 times as much as the amount of DiAcSpm therein, the crossreactivity of the above antibody with N^1-AcSpd in the urine of healthy persons is 25 when the crossreactivity of the antibody with DiAcSpm therein is taken as 100. Therefore, the antibody may yield false-positive results. Accordingly, in order to enhance the measuring sensitivity for DiAcSpm, a DiAcSpm-specific monoclonal antibody whose crossreactivities with N^1-AcSpd and N^8-acetylspermidine (hereinafter expressed as “N^8-AcSpd”) are still lower is required.

[6] = tested on: anti-DiAcSpm antibodies in culture supernatants of DiAcSpm positive clones; test: Crossreactivity test on antibody production positive clones (culture supernatant, competitive ELISA); format: binding, mouse
From the text: Out the DiAcSpm positive clones obtained above, 51 clones with relatively high antibody titers were selected and tested for crossreactivity with N^1-AcSpd (which is present in urine abundantly and believed to cross-react relatively easy from the results of researches made so far) by the method described later in Experimental Example 3. As a result, with respect to two wells, the 50% reaction inhibition activity of N^1-AcSpd was about 800 times as much as that of DiAcSpm; with respect to one well, the 50% reaction inhibition activity of N^1-AcSpd was 3,000 times as much as that of DiAcSpm; and with respect to the other wells, the 50% reaction inhibition activity of N^1-AcSpd was 0-200 times as much as that of DiAcSpm.
Antibody titers in diluted culture supernatants were measured by the method described in Experimental Example 2. Based on the results, the dilution rate with which the absorbance at 492 nm becomes 1 was selected. To each well of dilution plates, 70 μl of culture supernatant diluted at the dilution rate selected above and 70 μl of DiAcSpm solution with serially varied concentration or a structure analog of DiAcSpm (N^1-AcSpm, N^1-AcSpd, DiAcSpd, or the like) with serially varied concentration were mixed and added, and then left at 25° C. for 1 hour for pre-reaction. Subsequently, to each well of freeze-dried plates prepared in the same manner as in Experimental Example 1, 300 μl of BST was added, left at 25° C. for 30 minutes and re-washed with BST once. To the resultant plates, the pre-reacted reaction solution was added at 50 μl/well and left at 25° C. for 1 hour. Then, after washing with PBST three times, 50 μl of 80-fold dilution of HRP-labeled anti-mouse IgG antibody (KPL) was added to each well and left at 25° C. for 1 hour. Subsequently, after washing with PBST three times, 100 μl of o-phenylenediamine solution diluted with 0.012% hydrogen peroxide-containing 0.1 M citrate phosphate buffer (pH 5.0) to 0.5 mg/ml was added to each well and left at 25° C. for 9 minutes. Then, absorbances at 492 nm were measured with an ELISA reader.

KiDiAcSpm/Ki"S" (%) . . . (1) [2] [%]	Molecule	activity to inhibit the reaction of anti-DiAcSpm polyclonal antibody with solid-phased antigen [1]	Crossreactivity (1) × (2) (%) [2] [%]	50% inhibition activity of DiAcSpm relative to that of the analog [3]	further results
	AcSpm-GMB-AMS-BSA [lot No. 1]	highest inhibition activity			
0.0001	CC(=O)NCCCCN [AcPut]		0.01		
1.7072	CC(=O)NCCCNCCCCNCCCN [AcSpm, N^1-acetylspermine]		0.54	about 70 times	50% binding inhibition activity against immunoreaction with DiAcSpm relative to that with the analog [4]: about 20 times
0.0008	CC(=O)NCCCCNCCCNC(C)=O [DiAcSpd, N^1,N^8-diacetylspermidine]		0.002		
	AcSpm-GMB-AMS-BSA [lot No. 5]	comes next			
	AcSpm-GMB-AMS-BSA [lot No. 6]	highest inhibition activity			
0.0610	CC(=O)NCCCNCCCCN [N1-AcSpd, N^1-acetylspermidine]		1.62	about 1,000 times	crossreactivity of the antibody with the analog in the urine of healthy persons [5]: 25; 50% reaction inhibition activity of N^1-AcSpd relative to that of DiAcSpm ([6]; one well of 51 selected clones): 3,000 times; 50% reaction inhibition activity of N^1-AcSpd relative to that of DiAcSpm ([6]; the other wells of 51 selected clones): 0-200 times; 50% reaction inhibition activity of N^1-AcSpd relative to that of DiAcSpm ([6]; two wells of 51 selected clones): about 800 times; 50% binding inhibition activity against immunoreaction with DiAcSpm relative to that with the analog [4]: about 100 times
0.0003	CC(=O)NCCCCNCCCN [N8-AcSpd, N^8-acetylspermidine]		0.01		
100	CC(=O)NCCCNCCCCNCCCNC(C)=O [DiAcSpm, N^1,N^12-diacetylspermine]		100	about 100,000 times	
